Paper PMC11932959, “Sulfonamide‐Bearing Pyrazolone Derivatives as Multitarget Therapeutic Agents: Design, Synthesis, Characterization, Biological Evaluation, In Silico ADME/T Profiling and Molecular Docking Study” (Pharmacology Research & Perspectives, 2025)

Legend:
Assay in all cases: biochemical
AChE = AChE (Homo sapiens, UniProt P22303); assay type: biochemical; conditions: Lineweaver-Burk; for Ki: mean ± standard error, read-out: K I AChE
Description: (§1) First, purification of hCA I and hCA II enzymes for this study followed a modified procedure derived from prior literature sources. To evaluate the inhibitory effects, the esterase activities of hCA isoforms were assessed using the p‐nitrophenylacetate substrate, which is converted by both isoforms to the p‐nitrophenolate ion, as described in our prior studies. The assessment of ChE activities involved a modified adaptation of the Ellman's method, incorporating acetylthiocholine iodide for AChE and […] for BChE as the respective substrates.
(§2) The inhibition effects of the novel sulfonamide‐bearing pyrazolone derivatives were determined with different inhibitor concentrations (at least five) against hCA isoenzymes and ChEs. The IC 50 of the derivatives was calculated from Activity (%)–[inhibitor] graphs for derivatives. The inhibition types and K I values were found by Lineweaver and Burk's curves. The data analysis and graph generation were performed using GraphPad Prism version 8 for Mac (GraphPad Software, La Jolla, California, USA). The goodness of fit for enzyme inhibition models was compared using the extra sum‐of‐squares F test and the AICc approach.

hCA I = hCA I (Homo sapiens, UniProt P00915); assay type: biochemical; conditions: Lineweaver-Burk; for Ki: mean ± standard error, read-out: K I hCA I
Description: as §1, §2

hCA II = hCA II (Homo sapiens, UniProt P00918); assay type: biochemical; conditions: Lineweaver-Burk; for Ki: mean ± standard error, read-out: K I hCA II
Description: as §1, §2

BChE = BChE (Homo sapiens, UniProt P06276); conditions: mean ± standard error; Lineweaver-Burk; read-out: K I BChE
Description: as §1, §2

BChE, sequence (P06276 29-602, species assumed): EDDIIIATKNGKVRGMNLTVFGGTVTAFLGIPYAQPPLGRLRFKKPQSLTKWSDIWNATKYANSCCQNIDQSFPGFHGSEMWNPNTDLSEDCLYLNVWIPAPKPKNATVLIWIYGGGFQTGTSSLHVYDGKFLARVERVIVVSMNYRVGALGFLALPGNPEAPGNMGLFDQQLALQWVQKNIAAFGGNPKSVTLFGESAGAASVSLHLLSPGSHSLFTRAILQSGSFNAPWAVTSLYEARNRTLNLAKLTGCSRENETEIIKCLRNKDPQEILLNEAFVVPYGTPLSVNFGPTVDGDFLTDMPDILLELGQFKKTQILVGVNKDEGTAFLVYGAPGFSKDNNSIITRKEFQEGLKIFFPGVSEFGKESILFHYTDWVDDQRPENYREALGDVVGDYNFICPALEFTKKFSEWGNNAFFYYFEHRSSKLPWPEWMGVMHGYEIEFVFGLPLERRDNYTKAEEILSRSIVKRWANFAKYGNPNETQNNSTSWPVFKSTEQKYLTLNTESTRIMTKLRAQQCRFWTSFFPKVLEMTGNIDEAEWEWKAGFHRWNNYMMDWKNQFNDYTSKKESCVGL
AChE, sequence (P22303 32-614): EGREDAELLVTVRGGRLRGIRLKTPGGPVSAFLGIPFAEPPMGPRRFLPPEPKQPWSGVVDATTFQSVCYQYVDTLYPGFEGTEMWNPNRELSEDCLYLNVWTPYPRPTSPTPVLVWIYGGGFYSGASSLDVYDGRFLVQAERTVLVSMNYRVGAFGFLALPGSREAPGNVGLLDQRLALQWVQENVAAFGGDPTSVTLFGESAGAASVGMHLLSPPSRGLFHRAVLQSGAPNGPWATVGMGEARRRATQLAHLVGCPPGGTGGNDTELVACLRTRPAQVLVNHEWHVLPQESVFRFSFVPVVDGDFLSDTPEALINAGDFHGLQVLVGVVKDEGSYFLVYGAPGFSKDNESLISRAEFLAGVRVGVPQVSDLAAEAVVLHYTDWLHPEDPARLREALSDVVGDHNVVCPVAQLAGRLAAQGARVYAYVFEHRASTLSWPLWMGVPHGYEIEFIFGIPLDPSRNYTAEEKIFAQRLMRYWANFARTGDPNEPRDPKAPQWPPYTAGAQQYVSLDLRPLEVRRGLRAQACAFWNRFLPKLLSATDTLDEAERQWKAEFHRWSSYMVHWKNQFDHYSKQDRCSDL
hCA I, sequence (P00915 whole entry): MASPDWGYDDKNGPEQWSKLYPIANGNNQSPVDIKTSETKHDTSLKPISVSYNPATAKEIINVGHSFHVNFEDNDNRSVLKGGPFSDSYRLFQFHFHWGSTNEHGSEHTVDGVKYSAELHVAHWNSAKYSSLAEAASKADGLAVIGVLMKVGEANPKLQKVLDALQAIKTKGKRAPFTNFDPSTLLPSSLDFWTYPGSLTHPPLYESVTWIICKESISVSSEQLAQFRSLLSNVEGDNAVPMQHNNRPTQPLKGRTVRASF

Structure (SMILES)	Ki (AChE) [nM]	Ki (hCA I) [nM]	Ki (hCA II) [nM]	Ki (BChE) [nM]	inhibition type hCA I (hCA I)	inhibition type hCA II (hCA II)	inhibition type AChE (AChE)
CC1=NN(C(=O)c2ccccc2)C(=O)C1/N=N/c1ccc(S(N)(=O)=O)cc1 (stereo not drawn) [1a, 4‐[(1‐Benzoyl‐3‐Methyl‐5‐Oxo‐4,5‐Dihydro‐1H‐Pyrazol‐4‐Yl)diazinyl] Benzenesulfonamide]	11.2 ± 1.15	53.9 ± 5.03	65.5 ± 5.42	95.5 ± 5.78			
COc1ccc(C(=O)N2N=C(C)C(N=Nc3ccc(S(N)(=O)=O)cc3)C2=O)cc1 (stereo not drawn) [1e, 4‐([1‐(4‐Methoxybenzoyl)‐3‐Methyl‐5‐Oxo‐4,5‐Dihydro‐1H‐Pyrazol‐4‐Yl]Diazenyl) Benzenesulfonamide]	14 ± 1.49	75.5 ± 4.91	63.7 ± 6.71	80.9 ± 9.41	non‐competitive	competitive	
CC1=NN(C(=O)c2ccc(Cl)cc2)C(=O)C1/N=N/c1cccc(S(N)(=O)=O)c1 (stereo not drawn) [2b, 3‐([1‐(4‐Chlorobenzoyl)‐3‐Methyl‐5‐Oxo‐4,5‐Dihydro‐1H‐Pyrazol‐4‐Yl]Diazenyl) Benzenesulfonamide]	8.66 ± 0.93	37.1 ± 2.43	24.8 ± 1.57	76.4 ± 11.6		non‐competitive	
CC1=NN(C(=O)c2ccc(Br)cc2)C(=O)C1N=Nc1ccc(S(N)(=O)=O)cc1 (stereo not drawn) [1c, 4‐([1‐(4‐Bromobenzoyl)‐3‐Methyl‐5‐Oxo‐4,5‐Dihydro‐1H‐Pyrazol‐4‐Yl]Diazenyl) Benzenesulfonamide]	9.47 ± 1.23	49.2 ± 4.27	85.4 ± 6.6	34.8 ± 5.88		non‐competitive	
CC1=NN(C(=O)c2ccc(C)cc2)C(=O)C1N=Nc1cccc(S(N)(=O)=O)c1 (stereo not drawn) [2d, 3‐([3‐Methyl‐1‐(4‐Methylbenzoyl)‐5‐Oxo‐4,5‐Dihydro‐1H‐Pyrazol‐4‐Yl]Diazenyl) Benzenesulfonamide]	15.8 ± 1.04	18 ± 2.86	36.2 ± 2.78	88.6 ± 12.9	competitive		
CC1=NN(C(=O)c2cccc(Cl)c2)C(=O)C1/N=N/c1cccc(S(N)(=O)=O)c1 (stereo not drawn) [2f, 3‐([1‐(3‐Chlorobenzoyl)‐3‐Methyl‐5‐Oxo‐4,5‐Dihydro‐1H‐Pyrazol‐4‐Yl]Diazenyl) Benzenesulfonamide]	9.52 ± 0.86	37.7 ± 2.06	33.3 ± 4.09	136 ± 17.4			
CC1=NN(C(=O)c2ccc(Cl)cc2)C(=O)C1/N=N/c1ccc(S(N)(=O)=O)cc1 (stereo not drawn) [1b, 4‐([1‐(4‐Chlorobenzoyl)‐3‐Methyl‐5‐Oxo‐4,5‐Dihydro‐1H‐Pyrazol‐4‐Yl]Diazenyl) Benzenesulfonamide]	13.3 ± 1.43	55.9 ± 3.29	50.8 ± 3.36	73.3 ± 12.2			
CC1=NN(C(=O)c2ccc(C)cc2)C(=O)C1/N=N/c1ccc(S(N)(=O)=O)cc1 (stereo not drawn) [1d, 4‐([3‐Methyl‐1‐(4‐Methylbenzoyl)‐5‐Oxo‐4,5‐Dihydro‐1H‐Pyrazol‐4‐Yl]Diazenyl) Benzenesulfonamide]	16 ± 1.6	65.1 ± 3	42.6 ± 2.92	64.6 ± 7.59			
CC1=NN(C(=O)c2ccccc2)C(=O)C1/N=N/c1cccc(S(N)(=O)=O)c1 (stereo not drawn) [2a, 3‐[(1‐Benzoyl‐3‐Methyl‐5‐Oxo‐4,5‐Dihydro‐1H‐Pyrazol‐4‐Yl)diazinyl] Benzenesulfonamide]	10.5 ± 0.9	73.2 ± 7.17	55.7 ± 4.14	98.3 ± 7.34			
CC1=NN(C(=O)c2ccc(Br)cc2)C(=O)C1/N=N/c1cccc(S(N)(=O)=O)c1 (stereo not drawn) [2c, 3‐([1‐(4‐Bromobenzoyl)‐3‐Methyl‐5‐Oxo‐4,5‐Dihydro‐1H‐Pyrazol‐4‐Yl]Diazenyl) Benzenesulfonamide]	8.43 ± 1.42	44.6 ± 2.84	28.8 ± 2.51	96 ± 5.44			
COc1ccc(C(=O)N2N=C(C)C(/N=N/c3cccc(S(N)(=O)=O)c3)C2=O)cc1 (stereo not drawn) [2e, 3‐([1‐(4‐Methoxybenzoyl)‐3‐Methyl‐5‐Oxo‐4,5‐Dihydro‐1H‐Pyrazol‐4‐Yl]Diazenyl) Benzenesulfonamide]	13.5 ± 0.91	49 ± 6.25	35.4 ± 1.94	93.8 ± 10.5			
CC1=NN(C(=O)c2cccc(Cl)c2)C(=O)C1/N=N/c1ccc(S(N)(=O)=O)cc1 (stereo not drawn) [1f, 4‐([1‐(3‐Chlorobenzoyl)‐3‐Methyl‐5‐Oxo‐4,5‐Dihydro‐1H‐Pyrazol‐4‐Yl]Diazenyl) Benzenesulfonamide]	7.45 ± 0.98	66.8 ± 5.15	62.2 ± 4.19	58.2 ± 8.11			competitive
